{"source": "patent US10087421B2", "about": "“Stem cell suspension” (OTSUKA PHARMACEUTICAL FACTORY, INC., priority 2010, dated 2018)", "key": {"[1]": {"system": "hAT-MSCs P8 and hBM-MSCs P6", "assay": "Survival rate, cell aggregation and floating after standing for 1 hr (Example 7)", "type": "cell-based, human", "conditions": "about 25° C.", "method": "hAT-MSCs and hBM-MSCs were passaged 6 or 8 times and the obtained cells (hAT-MSCs P8 and hBM-MSCs P6) were plated on 10 cm-dishes. The cells were washed three times with 5-ml HESPANDER (KYORIN Pharmaceutical Co., Ltd.) per 10-cm dish, and detached by treating with 1-ml trypsin-EDTA (0.25% trypsin, 1 mM EDTA·4Na) for 20 sec into a single-cell state. The obtained cells (hAT-MSCs P8, 2.4×10^6 cells; hBM-MSCs P6, 2.3×10^6 cells) were transferred to a 15-ml FALCON tube, recovered by centrifugation, and suspended in the following composition solution. After standing at room temperature (about 25° C.) for 1 hr, the survival rate of the cells was measured and the cell aggregation was observed."}, "[2]": {"system": "hAT-MSC P3 and hBM-MSC P3", "assay": "Cell morphology, culture after standing and survival, results not separated by cell type", "type": "cell-based, human", "conditions": "trehalose in HESPANDER; 36 hr (Example 6)", "method": "The cells obtained by passaging hAT-MSCs and hBM-MSCs three times (hAT-MSC P3 and hBM-MSC P3) were plated on 10-cm dishes. The cells were washed three times with 5-ml PBS(−) per 10-cm dish, and detached by treating with 1-ml trypsin-EDTA (0.25% trypsin, 1 mM EDTA·4Na) for 20 sec into a single-cell state. […] After standing at room temperature (about 25° C.) for 240 min or 24 hr, the survival rate of the cells was measured, and the cell aggregation and morphology were observed. Furthermore, after standing for 240 min or 24 hr, the cells were further cultured for 12 hr and the cell morphology was observed.\nhAT-MSCs and hBM-MSCs were passaged three times and the obtained cells (hAT-MSCs P3 and hBM-MSCs P3) were plated on 10 cm-dishes. The cells were washed three times with 5-ml PBS(−) per 10-cm dish, and detached by treating with 1-ml trypsin-EDTA (0.25% trypsin, 1 mM EDTA·4Na) for 20 sec into a single-cell state. The obtained cells (hAT-MSCs P3, 4.25×10^5 cells; survival rate, 97.5%: hBM-MSCs P3, 5.0×10^5 cells; survival rate, 98.2%) were transferred to a 15-ml FALCON tube, recovered by centrifugation, washed twice with PBS(−), and suspended in the following composition solution (100 μL). After standing at room temperature (about 25° C.) for 8 hr or 36 hr, the survival rate of the cells was measured and the cell aggregation was observed."}, "[3]": {"system": "Swine subcutaneous adipose tissue-derived mesenchymal stem cells (Pig AT-MSCs)", "assay": "Microscopic observation of cell aggregate mass and cell floating state", "type": "cell-based", "conditions": "from dilution series of ET-K with saline; Pig AT-MSCs P2; 25° C.", "method": "The suspension was left standing at each temperature (0, 25, and 37° C.), pipetted several times with 20 μL PIPETMAN 0, 30, 60, 120 and 240 min later, and 10 μL thereof was transferred to a dish. A stereomicroscope was focused on the lowermost surface of the suspension on the dish, and observation was performed. The cells forming a mass with adjacent cells under the microscope were taken as cell aggregate mass. The cell aggregate mass was confirmed to be obviously moving as a mass by shaking the dish on the stage of the microscope. The swine subcutaneous adipose tissue-derived mesenchymal stem cells prepared in Example 1 were passaged twice and the obtained cells (Pig AT-MSCs P2) were plated on three 10 cm-dishes. The cells were washed three times with 5 ml PBS(−) per 10 cm dish, and detached by treating with 1 ml trypsin-EDTA (0.25% trypsin, 1 mM EDTA·4Na) for 20 sec into a single-cell state. […] Thereafter, in the same manner as in Example 1, the survival rate was calculated and the presence or absence of the cell aggregate mass was observed. […] Thereafter, in the same manner as in Example 1, the survival rate was calculated and the presence or absence of a cell aggregate mass was observed. […]"}}}
{"smiles": "OC[C@H]1O[C@H](O[C@H]2O[C@H](CO)[C@@H](O)[C@H](O)[C@H]2O)[C@H](O)[C@@H](O)[C@@H]1O", "note": "[trehalose]", "values": [{"measurement": "cell aggregation suppressive effect", "setting": "[1]", "result": "observed"}, {"measurement": "cell floating effect", "setting": "[1]", "result": "observed"}, {"measurement": "protrusion from the cell / on the cell surface", "setting": "[1]", "result": "suppressed"}, {"measurement": "cell survival rate", "setting": "[1]; added to HESPANDER", "result": "higher than by adding HESPANDER (H) alone"}, {"measurement": "effect on the cytotoxicity of fucoidan", "setting": "[1]; trehalose with 10 μg/ml fucoidan in HESPANDER", "result": "tendency to suppress the cytotoxicity of fucoidan"}, {"measurement": "trehalose concentration suggested to be preferable to increase the cell survival rate", "setting": "[2]", "result": "not more than 181.2 mg/mL"}, {"measurement": "trehalose concentration at which a stem cell aggregation suppressive effect is exhibited", "setting": "[3]", "result": "not less than 15.1 mg/ml"}, {"measurement": "trehalose concentration at which the stem cells float stably", "setting": "[3]", "result": "at least 15.1 mg/ml"}]}
